Data on five molecules can be found in article PMC9772221 (Archives of biochemistry and biophysics, 2022).

For orientation: Km means the substrate concentration at which the rate is half of its maximum. In general, kcat refers to the maximal rate divided by the concentration of active sites.

In experiment [1] the target is T1, PYCR3 (Homo sapiens, UniProt Q53H96).
T1 sequence (Q53H96 11-274): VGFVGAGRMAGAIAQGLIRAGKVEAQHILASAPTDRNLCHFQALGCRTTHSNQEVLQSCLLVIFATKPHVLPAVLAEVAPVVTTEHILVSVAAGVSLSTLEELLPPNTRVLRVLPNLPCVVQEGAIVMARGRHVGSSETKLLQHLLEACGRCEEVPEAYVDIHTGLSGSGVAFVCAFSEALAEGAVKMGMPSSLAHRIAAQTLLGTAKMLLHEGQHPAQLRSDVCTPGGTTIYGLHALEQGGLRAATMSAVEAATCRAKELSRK
The experiment can be described thus: Single-point inhibition screen of proline analogs against PYCR3. In kind it is biochemical. To be noted: proline analog 5 mM, L-P5C 200 μM, NADH 175 μM.

For experiment [2], the target named is T1, PYCR3. The experiment can be described thus: Competitive. In kind it is biochemical. To be noted: pH 7.5, 26°C, NADH fixed at 175 μM.
In experiment [3] the target is PYCR1. To be noted: read-out: Ki against PYCR1; cited from earlier work.
The target of experiment [4] is PYCR3. To be noted: read-out: Ki of L-proline against PYCR3, previous estimate; cited from earlier work.
The target in experiment [5] is T1, PYCR3. The experiment can be described thus: Bi-substrate kinetic analysis of PYCR3, global fitting to bi bi models. The class given is biochemical. To be noted: read-out: K^P5C, L-P5C on abscissa, L-P5C binds first, pH 7.5, 26°C.
Experiment [6] has as its target T1, PYCR3. The experiment can be described thus: Steady-state. To be noted: pH 7.5, 26°C. The class given is biochemical.
The subject of experiment [7] is PYCR1. To be noted: PYCR1, variable L-P5C, NADH = 175 μM; cited from earlier work.
The mark [8] stands for this setting: PYCR3, variable L-P5C, NADH = 175 μM.
The mark [9] stands for this setting: PYCR3, variable L-P5C, NADPH = 175 μM.
[10] abbreviates: PYCR3, variable coenzyme, L-P5C = 400 μM.

Read-outs that look alike come from different tables or passages of the source.

Consider `O=CN1CCC[C@H]1C(=O)O` [Compound 2, N-formyl-L-proline], for which the “catalytic activity compared to the control assay with no inhibitor” value on PYCR3 [1] is listed as no more than 50%. In addition, the Ki at PYCR3 [2] (read-out: Ki, apparent competitive (with L-P5C) inhibition constant) was 1200 ± 100 µM; on PYCR1 [3] it was 100 µM.
Consider `O=C(O)[C@@H]1CCCN1` [Compound 17, L-proline], for which the Ki is roughly 8000 µM on PYCR3 [4] and 5700 ± 600 µM at PYCR3 [2] (Ki, apparent competitive (with L-P5C) inhibition constant).
Turning to `O=C(O)C1CCC=N1` [L-P5C, Δ^1-pyrroline-5-carboxylate], the Kd on PYCR3 [5] (equilibrium compulsory ordered bi bi (Equation 2)) was 1500 ± 700 µM; at PYCR3 [5] (steady-state compulsory ordered bi bi (Equation 3)) it was 110 ± 70 µM. The results for the Km at PYCR3 [6] (setting [8]), at PYCR3 [6] (setting [9]) and with PYCR1 [7] were 315 ± 65 µM, 64 ± 48 µM and 260 ± 63 µM, respectively. Also, the kcat on PYCR3 [6] (setting [8]) was 146 ± 17 s⁻¹; on PYCR3 [6] (setting [9]) it was 48 ± 11 s⁻¹; in the experiment on PYCR1 [7] it was 51 ± 13 s⁻¹.
For the molecule `NC(=O)C1=CN([C@@H]2O[C@H](COP(=O)(O)OP(=O)(O)OC[C@H]3O[C@@H](n4cnc5c(N)ncnc54)[C@H](O)[C@@H]3O)[C@@H](O)[C@H]2O)C=CC1` [NADH], at PYCR3 [6] (setting [10]), the Km came out at 192 ± 8 µM and the kcat amounted to 235 ± 5 s⁻¹.
`NC(=O)C1=CN([C@@H]2O[C@H](COP(=O)(O)OP(=O)(O)OC[C@H]3O[C@@H](n4cnc5c(N)ncnc54)[C@H](OP(=O)(O)O)[C@@H]3O)[C@@H](O)[C@H]2O)C=CC1` [NADPH]: at PYCR3 [6] (setting [10]), the Km came to 45 ± 3 µM and the kcat came out at 70 ± 2 s⁻¹.
